Results as given in patent US20090142363A1, “CYTOTOXIC T-CELL EPITOPE PEPTIDE AND USE THEREOF” (priority 2005, published 2009).
No end group written: not given here.

Experiments:
[1] = test system: CTL line induced by TYF (PBMCs from ID*24-8); experiment: Cross-reactivity of the TYF-induced CTL line to the subgroup C-specific CTL epitope; assay type: cell-based, human
Text: As shown in FIG. 11-4, there are amino acid mutations at the fourth and sixth positions in TYF identified in the present invention as compared to the subgroup C-specific CTL epitopes. Thus, the cross-reactivity to subgroup C-specific CTL epitope ([…] (SEQ ID NO: 14); mutated amino acids are underlined) (Leen A M, Sili U, Vanin E F, Jewell A M, Xie W, Vignali D, Piedra P A, Brenner M K, Rooney C M. Conserved CTL epitopes on the adenovirus hexon protein expand subgroup cross-reactive and subgroup-specific CD8+ T cells. Blood. 104:2432-2440 (2004)) was examined using a CTL line induced by TYF.
PBMCs prepared from ID*24-8 were stimulated with TYF for 13 days, and then restimulated with TYF or […] (SEQ ID NO: 14) to examine whether the CTL line produces IFNγ.

[2] = test system: peripheral blood / PBMCs / peptide-induced CTL lines of HLA-A*24 donors; experiment: Staining of peripheral blood, PBMCs or peptide-induced CTL lines with MHC-tetramer reagents; assay type: cell-based, human; set-up: positive rate: CD8-positive, MHC-tetramer reagent-positive cells to viable cells: concentration or dose not given beside the values; settings: for MHC-tetramer reagent-positive cells (UL and UR) in IFNγ / tetramer plot, almost none producing IFNγ: HIV peptide added, TYF: donor ID*24-8, VYS: donor ID*24-2; for increase of the positive rate from day 0 to day 10: donor ID*24-8, ten days of culture with the peptide; for amount of specific CTLs (CD8 / MHC-tetramer reagent-positive): TYF: donor ID*24-8, 10 days stimulation, VYS: donor ID*24-2, 27 days
Description: MBL Co. where the present inventors are affiliated with has acquired exclusive patent licensing rights in Japan for MHC-tetramer reagents (U.S. Pat. No. 5,635,363; French Application No. FR9911133; and U.S. Pat. Nos. 5,723,584, 5,874,239, 5,932,433, and 6,265,552) from Beckman Coulter Co. Based on the patents, PE-labeled MHC-tetramer reagents were prepared using adenovirus-specific CTL epitope peptides and HLA-A*2402 molecules.
Adenovirus-specific CTLs quantification was carried out using MHC-tetramer reagents that was prepared using CTL epitope peptides of the present invention, with peripheral blood, PBMCs isolated from peripheral blood, CTL lines induced using CTL epitope peptides as samples. Examples of quantification using PE-labeled MHC-tetramer reagents are described below. Labelling dyes may be used in an appropriate combination depending on the type of flow cytometer to be used, and is not limited to the examples described below.
Ten μl of a PE-labeled MHC-tetramer reagent, 20 μl of an FITC-labeled antibody for T cell (for example, CD8, CD4, or CD3), and such were added to 200 μl of collected peripheral blood. A CD45 antibody labeled with PC5 or such may also be added to eliminate nonspecific fluorescence due to contaminated erythrocytes. After gentle mixing, the mixture was allowed to stand at room temperature for 30 minutes. OptiLyse B was added, and erythrolysis and fixation was carried out according to the manufacturer's protocol. Two ml of PBS was added, stirred, and the cells were centrifuged at 400×g for 5 minutes. After the supernatant was removed by aspiration, the cells were resuspended in 500 μl of PBS and analyzed using a flow cytometer within 24 hours.
Ten μl of a PE-labeled MHC-tetramer reagent, 20 μl of an FITC-labeled T cell surface antibody (for example, CD8, CD4, or CD3), and such were added to an appropriate amount of PBMCs (10^5 to 10^6 cells) or a CTL line induced by use of CTL epitope peptides. A CD45 antibody labeled with PC5 or such may also be added to eliminate nonspecific fluorescence due to contaminated erythrocytes. After gentle mixing, the cells were allowed to stand at room temperature for 30 minutes. Three ml of PBS was added, stirred, and the cells were centrifuged at 400×g for 5 minutes. After the supernatant was removed by aspiration, the cells were resuspended in 500 μl of PBS. When a CTL line is used, 7-AAD Viability Dye (Non-viable cell detection reagent; MBL Co.) may be added to eliminate nonspecific fluorescence caused by non-viable cells. The cells were analyzed using a flow cytometer within 24 hours.
The results of staining obtained using the five types of MHC-tetramer reagents used to prepare the peptide-induced CTL lines are shown in FIG. 5.

[3] = donor ID*24-8, PBMCs cultured with the epitope peptide for 10 days (day 10)
[4] = donor ID*24-8, immediately after blood collection (day 0)
[5] = restimulation with the specific peptide

| Sequence | cross-reactivity to subgroup C [1] | IFNγ production of the CTL line induced by TYF on restimulation with the named peptide ([1]; PBMCs from ID*24-8 stimulated with TYF for 13 days) | CD8-positive and TYF-Tet-positive cells ([1]; PBMCs from ID*24-8 stimulated with TYF for 13 days, restimulated with the named peptide) [%] | MHC-tetramer reagent-positive cells (UL and UR) in IFNγ / tetramer plot, almost none producing IFNγ [2] [%] | positive rate: CD8-positive, MHC-tetramer reagent-positive cells to viable cells [2, 3] [%] | positive rate: CD8-positive, MHC-tetramer reagent-positive cells to viable cells [2, 4] [%] | increase of the positive rate from day 0 to day 10 [2] [times] | amount of specific CTLs (CD8 / MHC-tetramer reagent-positive) ([2]; restimulation with HIV peptide) [%] | amount of specific CTLs (CD8 / MHC-tetramer reagent-positive) [2, 5] [%] |
| --- | --- | --- | --- | --- | --- | --- | --- | --- | --- |
| TYFNLGNKF [TYF] | no cross-reactivity | produced IFNγ in a TYF-specific manner | 1.22 | 1.76 | 1.53 | 0.01 | 153 | 1.67 | 0.80 |
| VYSGSIPYL |  |  |  | 8.24 | 0.15 | 0.01 | 15 | 8.33 | 5.07 |
